How the values were obtained:
Assay type in all cases: cell-based, human
[1] = test system: MCF-7 breast cancer cells; experiment: MCF-7 breast cancer cell proliferation (BrdU ELISA) in presence of estradiol-17β; conditions: for inhibition of MCF-7 cell proliferation/survival: 1 μM or 50 μM antiestrogen in the presence of 1 nM estradiol, 1% DCC-FBS, FIG. 2A; for IC50: Homo sapiens, MCF7, 72 hrs in the presence of 1 nM estradiol-17β, BrdU ELISA, read-out: IC50 for inhibition of cell proliferation, MCF-7
Method: In experiments to assess potential proliferative effects of novel estrogen receptor ligands, human breast cancer cells were grown in phenol red-free, estrogen-free media with 1% dextran-coated charcoal-treated (DCC)-fetal bovine serum (FBS) for 48 hrs (15,44), then treated with either 1 μM or 50 μM doses of estrogen receptor antagonists in the presence of 1 nM estradiol-17β. Cell counts and viability tests (Trypan blue) were done every 24 hr for 3 days. After 72 hr, proliferation was assessed using the BrdU Cell proliferation ELISA (Roche). Cell numbers were also assessed initially by cell counts to confirm ELISA data. Each antiestrogen was tested at least in three different experiments.
In order to assess the antitumor action of novel estrogen receptor antagonists, we cultured human MCF-7 breast cancer cells with known expression of ERα. Cells were grown in 1% DCC-FBS for 48 hr and then treated with vehicle control or either 1 μM or 50 μM concentrations of antiestrogens JD 101-160 or the pure antiestrogen fulvestrant (FAS), all in the presence of 1 nM estradiol-170. […] Shown in FIG. 2A are results from MCF-7 cells grown in 1% DCC-FBS for 48 hr and then treated with vehicle control, 1 nM estradiol-170 and either 1 μM or 50 μM concentrations of antiestrogens JD 101-160 or the known pure antiestrogen fulvestrant (FAS) in the presence of 1 nM estradiol-170. Cell proliferation is expressed as percentage of that determined in the 1 nM estradiol-170-treated control group.
Cell proliferation assays: breast and lung tumor cells (between […]) were plated in 96 well plates using their respective medium with 10% FBS. For experiments using estradiol-17β, cells were rinsed with PBS and incubated with phenol redfree medium with 1% DCC-FBS for 48 hours as described before (24,25). Cells were then treated with different concentrations of SERDs ranging between 0.0001-100 μM. […] Cell counts and viability tests (Trypan blue) were done every 24 hr for 3 days. After 72 hr, proliferation was assessed with the MTS Assay CELLTITER 96® Aqueous Cell Proliferation Assay (Promega) or the Cell Proliferation ELISA, BrdU colorimetric assay (Roche). For the MTS, the absorbance of the formazan product was measured at 490 nanometer using the iMARK microplate reader from BIORAD. The BrdU ELISA assay is based on detection of BrdU incorporated into the genomic DNA of proliferating cells and an anti-BrdU antibody, the reaction product was quantified by measuring the absorbance at 370 nanometers using iMARK microplate reader from BIORAD. Cell numbers were also assessed initially by cell counts to confirm MTS/BrdU data. Experiments were done at least three times to confirm data.

[2] = test system: cyclin D1; experiment: Cyclin D1 expression, Western immunoblot in MCF-7 cells; conditions: 24 hrs, 10% FBS, 1 μM and 10 μM, FIG. 7B
Method: FIG. 7B. […] Western immunoblot of cyclin D1 after treating MCF-7 cells 24 hrs with 10% FBS and 1 μM and 10 μM doses of JD105, JD128 and JD140. Refer to FIG. S4 methods and previous reports (20).
Next, SERD compounds developed in our laboratory were tested for a capability to suppress the expression of cyclin D1 in ERα-positive human breast cancer cells MCF-7 which were used to validate the activity of other hormonal agents previously (see 20) (FIG. 7B).
(§1) Gel electrophoresis and immunoblotting: Breast and lung tumor cells were treated in phenol-red free RPMI1640/DMEM with 5% DCC-FBS (26). After selected treatments cells were homogenized in the presence of protease inhibitors using RIPA buffer (Thermo Scientific). All procedures were performed in ice, lysates were centrifuged and protein concentration quantified in the supernatants using a Thermo Scientific® BCA protein assay kit. Approximately 20-60 μg of total protein were heated in the presence of Laemmli sample buffer (Biorad) to 100° C. for 10 min and loaded it on a gradient TGX gel 4-15% (Biorad). Gels were transferred to PVDF membranes for immunoblotting. Membranes were blocked either with 5% milk in Tris Buffer Saline with 0.1% Tween 20 or protein-free blocking solution (Thermo Scientific). […]

[3] = test system: cleaved PARP; experiment: PARP cleavage, Western blot in A549 cells; conditions: A549 cells, 0.01, 0.1 and 1 μM, 4 hours, 5% DCC-FBS; FIG. 2B
Method: FIG. 2B. […] A549 cells were treated in 5% DCC-FBS phenol-red free RPMI1640 with vehicle control (C) or increasing concentrations of JD140 at 0.01, 0.1 and 1 μM or 0.1 μM fulvestrant (F) for 4 hours. Western Blots were performed using anti-cleaved-PARP antibody (Cell Signaling Technology). RPL13A is shown as loading control. The Western blot is representative of 3 independent experiments.
We next assessed the effect of SERD compound 140 on the stimulation of NSCLC cell apoptosis by measurement of PARP cleavage at increasing drug doses (see FIG. 2B).
as §1

[4] = test system: MAPK: ERK-1 (p44) and ERK-2 (p42); experiment: Estrogen-induced MAPK phosphorylation, Western blot in MCF-7 cells; conditions: MCF-7 parent cells, 1 nM estradiol (E2); antagonists pre-incubated at 1000 nM; FIG. 7A
Method: ERD inhibition of phosphorylation of MAPK, at both extracellular signal-regulated kinases ERK-1 (p44) and ERK-2 (p42) and downstream effects. […] Thus, we measured estrogen-induced phosphorylation of MAPK by established methods (9,15,16). Briefly, MCF-7 parental cells were estrogen deprived for 48 hrs, then treated with 1 nM estradiol-1713 in the presence of new compounds (10 nM-10 μM) to be tested for antagonist activity. After treatments, cell lysates were separated by SDS-PAGE followed by Western blot using a polyclonal antibody directed to phospho-p44/p42 MAP kinase (Thr202/Tyr204) (Cell Signaling). Immunodetection with antibody against total p44/p42 (Cell Signaling) was done as a control for gel loading. […] ERD S15 was as effective as fulvestrant in inhibiting the rapid estrogen-induced MAPK phosphorylation in breast tumor cells in vitro. […] E2 but not vehicle (CN) induced rapid phosphorylation of ERK-1 (p44) and ERK-2 (p42). This activation was prevented when cells were pre-incubated with 1000 nM ICI 182,780 (ICI; Faslodex) or 1000 nM compound S15 in the presence of estradiol (E2).

Compound	inhibition of MCF-7 cell proliferation/survival [1]	IC50 [1] [nM]	cyclin D1 expression [2]	PARP cleavage [3]	phosphorylation of MAPK (ERK-1 p44 and ERK-2 p42) [4]
C[C@]12C[C@H](Oc3ccc(N)c(C(F)(F)F)c3)[C@@H]3c4ccc(O)cc4CC[C@H]3[C@@H]1CC[C@@H]2O [JD128, (8S,9S,11S,13S,14S,17S)-11-(4-Amino-3-(trifluoromethyl)phenoxy)-13-methyl-7,8,9,11,12,13,14,15,16,17-decahydro-6H-cyclopenta[a]phenanthrene-3,17-diol]	significant inhibition	110	down-regulates cyclin D1		
C[C@]12C[C@H](Oc3ccc(NC(=O)CCCCN4CCCCC4)c(F)c3)[C@@H]3c4ccc(O)cc4CC[C@H]3[C@@H]1CC[C@@H]2O [JD140, N-(4-(((8S,9S,11S,13S,14S,17S)-3,17-Dihydroxy-13-methyl-7,8,9,11,12,13,14,15,16,17-deca-hydro-6H-cyclopenta[a]phenanthren-11-yl)oxy)-2-fluorophenyl)-5-(piperidin-1-yl)pentan-amide]	significant inhibition	320		enhanced PARP cleavage	
C[C@]12C[C@H](Oc3ccc(N)cc3)[C@@H]3c4ccc(O)cc4CC[C@H]3[C@@H]1CC[C@@H]2O [JD105, (8S,9S,11S,13S,14S,17S)-11-(4-aminophenoxy)-13-methyl-7,8,9,11,12,13,14,15,16,17-decahydro-6H-cyclopenta[a]phenanthrene-3,17-diol]		2140			inhibits phosphorylation of MAPK

Source: patent publication US10918648B2, “Estrogen receptor modulator combinations” (The Regents of the University of California, priority 2016, dated 2021)
